The values below come from patent US7348357B2, “Arylamides” (Bayer HealthCare AG, priority 2002, dated 2008).

Values after ≈ are worked out from the molar mass of the structure shown.

Assay [1] relates to Haemophilus influenzae Spain 7. Nature of the assay: Minimum inhibitory concentration (MIC), liquid dilution test. As to conditions: BHI broth plus 20% bovine serum, 10 μg/ml hemin and 1% Isovitale, 37° C., 18-24 hours, 8-10% CO2, lowest concentration with no visible bacterial growth. In kind it is cell-based. As to the method: (§1) Determination of the Minimum Inhibitory Concentration (MIC): The MIC is determined in a liquid dilution test. Overnight cultures of the test organisms are diluted to a cell count of 10^5 organisms per ml in Isosensitest medium (Difco, Irvine, USA) and are incubated with dilutions of the test substances (1:2 dilution stages). Exceptions are the tests with S. pneumoniae […], which are conducted in BHI broth (Difco) plus 20% bovine serum, and with H. influenzae, which are conducted in BHI broth (Difco) plus 20% bovine serum, 10 μg/ml hemin and 1% Isovitale (Becton Dickinson, New Jersey, USA). The cultures are incubated at 37° C. for 18-24 hours; S. pneumoniae and H. influenzae in the presence of 8-10% CO2. The lowest concentration of each substance at which there is no longer any visible bacterial growth is defined as the MIC. The MICs in μmol/l of some compounds of the invention against a series of test organisms are listed by way of example in the table below.

Assay [2] has as its system Staphylococcus aureus 133. Described as above. It is filed as cell-based. Particulars: Isosensitest medium, 10^5 organisms per ml, 37° C., 18-24 hours, lowest concentration with no visible bacterial growth. As to the method:
as §1

The next assay concerns bacteria. Particulars: described in the literature (J. Am. Chem. Soc. 1987, J. Org. Chem. 1994, J. Antibiot. 1997); cited from earlier work.

For orientation: MIC means the lowest concentration that inhibits growth of the organism. A higher MIC goes with a less susceptible organism. For the molecule `CC(C)[C@H](NC(=O)C[C@H](NC(=O)c1cccc(F)n1)c1ccccc1)C(=O)[C@@H]1C(=O)NC(=O)[C@H]1C` [Example 2, 6-Fluoro-N-{(1S)-3-[((1S)-2-methyl-1-{[(3R,4S)-4-methyl-2,5-dioxo-3-pyrrolidinyl]-carbonyl}propyl)amino]-3-oxo-1-phenylpropyl}-2-pyridinecarboxamide], the “MIC Haemophilus influenzae Spain 7” value in assay [1] worked out at 7.81 µM. For the same molecule, in assay [2], the lowest concentration to inhibit growth (MIC) was 15.6 µM (≈ 7.54 µg/mL).
The corresponding values for `CC(C)[C@H](NC(=O)C[C@H](NC(=O)c1cc(-c2ccccc2)ccn1)c1ccccc1)C(=O)[C@@H]1C(=O)NC(=O)[C@H]1C` [Example 6, N-{(1S)-3-[((1S)-2-Methyl-1-{[(3R,4S)4-methyl-2,5-dioxo-3-pyrrolidinyl]-carbonyl}propyl)amino]-3-oxo-1-phenylpropyl}-4-phenyl-2-pyridinecarboxamide] are 15.63 µM and 7.81 µM (≈ 4.22 µg/mL).
`C/C=C/C=C/C(=O)N[C@@H](CC(=O)N[C@H](C(=O)[C@@H]1C(=O)NC(=O)[C@H]1C)C(C)C)c1ccccc1` [moiramide B]: in the assay on bacteria, the antibacterial activity entry was “having antibacterial activity”.
As to `COc1ccc(CC(=O)N[C@@H](CC(=O)N[C@H](C(=O)[C@@H]2C(=O)NC(=O)[C@H]2C)C(C)C)c2ccccc2)c(Cl)c1Cl` [Example 109], the “MIC Haemophilus influenzae Spain 7” value in assay [1] was 62.5 µM. In assay [2], this molecule came in with an MIC of 0.98 µM (≈ 0.565 µg/mL).
In the same order, the values of `C[C@@H]1C(=O)NC(=O)[C@H]1C(=O)[C@@H](NC(=O)C[C@H](NC(=O)c1cc2cc(F)ccc2[nH]1)c1ccccc1)C1CCCC1` [Example 48, N-[(1S)-3-({(1S)-1-Cyclopentyl-2-[(3R,4S)4-methyl-2,5-dioxo-3-pyrrolidinyl]-2-oxoethyl}amino)-3-oxo-1-phenylpropyl]-5-fluoro-1 H-indole-2-carboxamide] are 15.63 µM and 0.98 µM (≈ 0.536 µg/mL).
Turning to `C/C=C/C=C/C=C/C(=O)N[C@@H](CC(=O)N[C@H](C(=O)[C@@H]1C(=O)NC(=O)[C@H]1C)C(C)C)c1ccccc1` [andrimid], the antibacterial activity result in the assay with bacteria is given as “having antibacterial activity”.
Regarding `C[C@@H]1C(=O)NC(=O)[C@H]1C(=O)C(NC(=O)C[C@H](NC(=O)c1ccccn1)c1ccccc1)C1CCCC1` (stereo partly drawn) [Example 9, N-[(1S)-3-({1-Cyclopentyl-2-[(3R,4S)-4-methyl-2,5-dioxo-3-pyrrolidinyl]-2-oxoethyl}amino)-3-oxo-1-phenylpropyl]-2-pyridinecarboxamide], in assay [1], the “MIC Haemophilus influenzae Spain 7” value stood at 62.5 µM. Besides, the minimal inhibitory concentration (MIC) in assay [2] was found to be 7.81 µM (≈ 3.83 µg/mL).
For `C/C=C/C=C/C=C/C(=O)N[C@@H](CC(=O)N[C@H](C(=O)[C@@]1(O)C(=O)NC(=O)[C@H]1C)C(C)C)c1ccccc1` [moiramide C], the antibacterial activity result in the assay on bacteria was “inactive”.
